Measured values as given in US20120082658A1, “Methods for the Treatment of Allergic Diseases” (VentiRx Pharmaceuticals, Inc., priority 2010, published 2012).
Where two headings read alike, the source gives them in different places.

How the values were obtained:
TLR3 = molecular target: T1, TLR3 (Homo sapiens, UniProt O15455); assay: HEK293 cells transfected with human TLR3, NF-κB driven reporter; format: cell-based; conditions: concentration up to 25 uM
T1 construct: expressed in transfected cells; host or cells: HEK293
T1 sequence (O15455 24-904): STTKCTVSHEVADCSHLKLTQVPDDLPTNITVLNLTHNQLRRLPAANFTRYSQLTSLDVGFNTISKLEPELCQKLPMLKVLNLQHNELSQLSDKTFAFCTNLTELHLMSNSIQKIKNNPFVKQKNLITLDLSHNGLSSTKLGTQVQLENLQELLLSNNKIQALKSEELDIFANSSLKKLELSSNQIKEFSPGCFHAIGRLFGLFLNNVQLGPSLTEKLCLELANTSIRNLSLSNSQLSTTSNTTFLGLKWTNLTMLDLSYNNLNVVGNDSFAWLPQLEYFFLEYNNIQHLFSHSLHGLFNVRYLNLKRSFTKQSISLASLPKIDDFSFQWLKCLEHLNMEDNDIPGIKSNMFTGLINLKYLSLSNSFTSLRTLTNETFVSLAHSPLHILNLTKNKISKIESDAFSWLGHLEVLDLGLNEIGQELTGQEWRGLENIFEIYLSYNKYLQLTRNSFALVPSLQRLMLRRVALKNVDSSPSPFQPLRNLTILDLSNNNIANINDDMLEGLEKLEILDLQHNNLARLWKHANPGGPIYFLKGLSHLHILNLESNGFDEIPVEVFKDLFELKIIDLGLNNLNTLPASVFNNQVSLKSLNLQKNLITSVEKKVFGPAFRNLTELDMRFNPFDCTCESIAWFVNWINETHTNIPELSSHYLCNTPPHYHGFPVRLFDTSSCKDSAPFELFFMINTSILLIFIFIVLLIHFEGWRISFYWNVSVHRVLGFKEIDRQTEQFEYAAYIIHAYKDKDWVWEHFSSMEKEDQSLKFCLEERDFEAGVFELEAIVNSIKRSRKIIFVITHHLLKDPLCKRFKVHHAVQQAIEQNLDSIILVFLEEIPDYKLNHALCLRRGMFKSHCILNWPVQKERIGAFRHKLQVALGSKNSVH
Procedure: (§1) FIG. 8 is two graphs depicting the potency and selectivity of VTX-378 for TLR8. The half-maximal effective concentration (EC50) for VTX-378 activation of TLR8 and TLR7 was assessed in peripheral blood mononuclear cells (PBMCs) by the amount of secreted TNFα (A) and by the activity of NF-κB (B) from 15 healthy donors and also in HEK293 cells transfected with various human TLRs.
(§2) Preclinical studies were performed with VTX-378, the active pharmaceutical ingredient in VTX-1463. The specificity of VTX-378 for human TLR8 relative to other TLRs was assessed in transfected Human Embryonic Kidney 293 (HEK293) cells engineered to express individual TLRs (2-9) via transfection, and assessed using an NF-κB driven reporter system. […] The pharmacologic effects of VTX-378 were characterized in vitro using isolated human peripheral blood mononuclear cells (PBMCs).

[1] = system: ragweed-sensitized beagle dogs; assay: Model of allergic rhinitis in ragweed-sensitized beagle dogs (acoustic rhinometry, nasal mediators); format: in vivo, beagle dog
Procedure: FIG. 1 is four graphs establishing that one day pretreatment with VTX-378 reduces nasal congestion.
The therapeutic activity of VTX-378 was assessed in a well characterized model of allergic rhinitis in ragweed-sensitized beagle dogs (FIGS. 1-7). Acoustic rhinometry (AcR) can be used to measure the direct effect on the nasal mucosa following nasal instillation of ragweed antigen.

[2] = system: human peripheral blood mononuclear cells (PBMCs); assay: Cytokine production in isolated human PBMCs; format: cell-based; conditions: for EC50: Homo sapiens, PBMC
Procedure: as §2

TLR2 = molecular target: T2, TLR2 (Homo sapiens, UniProt O60603); assay: HEK293 cells transfected with human TLR2, NF-κB driven reporter; format: cell-based; conditions: concentration up to 25 uM
T2 construct: expressed in transfected cells; host or cells: HEK293
Procedure: as §1, §2

TLR9 = molecular target: T3, TLR9 (Homo sapiens, UniProt Q9NR96); assay: HEK293 cells transfected with human TLR9, NF-κB driven reporter; format: cell-based; conditions: concentration up to 25 uM
T3 construct: expressed in transfected cells; host or cells: HEK293
T3 sequence (Q9NR96 26-1032): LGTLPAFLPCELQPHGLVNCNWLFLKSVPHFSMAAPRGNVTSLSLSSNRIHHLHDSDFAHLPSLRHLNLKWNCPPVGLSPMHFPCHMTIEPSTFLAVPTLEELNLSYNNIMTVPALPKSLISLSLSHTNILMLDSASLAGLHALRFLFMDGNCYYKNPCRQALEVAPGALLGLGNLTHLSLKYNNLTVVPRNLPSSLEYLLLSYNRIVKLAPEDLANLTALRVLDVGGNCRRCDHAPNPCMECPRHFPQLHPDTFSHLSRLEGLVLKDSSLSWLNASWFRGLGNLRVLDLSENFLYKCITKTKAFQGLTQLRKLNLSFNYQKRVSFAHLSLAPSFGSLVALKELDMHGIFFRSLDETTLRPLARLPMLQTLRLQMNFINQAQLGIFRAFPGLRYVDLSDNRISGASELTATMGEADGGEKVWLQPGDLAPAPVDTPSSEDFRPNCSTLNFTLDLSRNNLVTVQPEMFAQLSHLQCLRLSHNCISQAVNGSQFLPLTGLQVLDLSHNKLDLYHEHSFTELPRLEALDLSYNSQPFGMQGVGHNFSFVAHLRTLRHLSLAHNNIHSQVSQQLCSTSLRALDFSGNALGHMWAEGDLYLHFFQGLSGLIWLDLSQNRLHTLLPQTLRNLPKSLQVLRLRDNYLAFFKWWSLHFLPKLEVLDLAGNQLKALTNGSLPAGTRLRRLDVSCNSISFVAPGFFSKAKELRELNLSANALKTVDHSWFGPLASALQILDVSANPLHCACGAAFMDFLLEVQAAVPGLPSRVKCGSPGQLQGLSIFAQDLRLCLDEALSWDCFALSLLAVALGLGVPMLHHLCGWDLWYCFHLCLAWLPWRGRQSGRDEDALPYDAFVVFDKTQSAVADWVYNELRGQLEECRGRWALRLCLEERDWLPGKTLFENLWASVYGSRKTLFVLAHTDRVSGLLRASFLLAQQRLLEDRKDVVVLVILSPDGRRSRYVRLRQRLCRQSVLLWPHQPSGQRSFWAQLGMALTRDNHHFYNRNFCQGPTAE
Procedure: as §1, §2

[3] = single dose 1000 ug intranasal one day prior to ragweed challenge

T2 sequence (O60603 21-784): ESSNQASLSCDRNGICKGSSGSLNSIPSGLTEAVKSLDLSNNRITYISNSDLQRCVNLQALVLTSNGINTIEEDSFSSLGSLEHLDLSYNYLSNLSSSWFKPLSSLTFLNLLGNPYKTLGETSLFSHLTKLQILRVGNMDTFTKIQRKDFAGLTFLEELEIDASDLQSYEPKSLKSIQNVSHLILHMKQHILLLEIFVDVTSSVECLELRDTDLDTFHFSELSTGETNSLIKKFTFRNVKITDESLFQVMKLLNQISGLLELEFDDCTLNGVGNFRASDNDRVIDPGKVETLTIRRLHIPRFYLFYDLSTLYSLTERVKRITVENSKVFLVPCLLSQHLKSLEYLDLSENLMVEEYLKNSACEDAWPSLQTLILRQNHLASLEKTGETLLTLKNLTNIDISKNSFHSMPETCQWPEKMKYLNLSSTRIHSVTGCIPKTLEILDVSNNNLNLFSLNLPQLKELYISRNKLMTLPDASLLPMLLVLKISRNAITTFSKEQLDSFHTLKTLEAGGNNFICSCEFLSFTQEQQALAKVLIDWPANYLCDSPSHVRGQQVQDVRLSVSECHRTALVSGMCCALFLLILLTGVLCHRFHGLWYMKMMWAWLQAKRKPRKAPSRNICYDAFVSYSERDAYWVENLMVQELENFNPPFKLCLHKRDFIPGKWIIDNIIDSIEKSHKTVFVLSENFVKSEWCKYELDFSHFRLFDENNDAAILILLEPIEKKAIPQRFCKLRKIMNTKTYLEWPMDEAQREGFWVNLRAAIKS

For `CCCN(CCC)C(=O)C1=Cc2ccc(-c3ccc(C(=O)N4CCCC4)cc3)cc2N=C(N)C1` [VTX-378], which “activity on TLR3” value (TLR3) is on record?
Its value is “no detectable activity”.

And the “production of allergic mediators (nasal histamine, leukotrienes C4/D4/E4, prostaglandin D2, prostaglandin E2)” value ([1]; dose not given)?
Its value is “significantly reduced”.

And the “allergic response to antigen challenge (acoustic rhinometry)” value ([1]; intranasal 100-1000 mcg)?
The value was “dose-dependent, statistically significant reduction”.

And the “level of nasal histamine” value ([1]; single dose 100 ug)?
The value was “less significant”.

What about the “level of nasal leukotrienes C4/D4/E4” value ([1]; single dose 100 ug) of the same compound?
Its value is “less significant”.

What about the “level of nasal prostaglandin D2” value ([1]; single dose 100 ug) of the same compound?
Its value is “less significant”.

And the “level of nasal prostaglandin E2” value ([1]; single dose 100 ug)?
The value was “less significant”.

And the “allergic responses (nasal congestion)” value ([1]; single dose 100 ug, 500 ug and 1000 ug intranasal one day prior to ragweed challenge)?
Its value is “significantly attenuated allergic responses”.

What about the “level of nasal histamine” value [1, 3] of the same compound?
Its value is “significantly reduced”.

And the “level of nasal leukotrienes C4/D4/E4” value [1, 3]?
The value was “significantly reduced”.

What about the “level of nasal prostaglandin D2” value [1, 3] of the same compound?
Its value is “significantly reduced”.

And the “level of nasal prostaglandin E2” value [1, 3]?
The value was “significantly reduced”.

What about the “attenuation of nasal congestion” value ([1]; single dose of 1000 mcg intranasal before ragweed challenge) of the same compound?
The value was 56.5%±10.0.

And the “allergic responses (nasal congestion)” value ([1]; two 250 ug doses intranasal one day and four-day prior to ragweed challenge)?
The value was “significantly attenuated allergic responses”.

And the “allergic responses (nasal congestion)” value ([1]; two 1000 ug doses intranasal, one day and four-day or one day and eight-day prior to ragweed challenge)?
Its value is “significantly attenuated allergic responses”.

What about the “improvement of nasal congestion” value ([1]; two doses of 1000 mcg separated by 4 days) of the same compound?
Its value is 65.4%±10.3.

What about the “improvement of nasal congestion” value ([1]; two doses of 1000 mcg separated by 7 days) of the same compound?
The value was 71.9%±7.7.

And the EC50 ([2]; analyte IL-10, read-out: EC50, IL-10 production)?
Its EC50 is 120 nM.

And the EC50 ([2]; analyte IL-12p40, read-out: EC50, IL-12p40 production)?
The EC50 was 230 nM.

What about the EC50 ([2]; analyte IL-12p70, read-out: EC50, IL-12p70 production) of the same compound?
Its EC50 is 220 nM.

And the “Mean Mediator Level ± SEM, IL-10” value ([2]; VTX-378 1.6 uM)?
Its value is 72 ± 29 pg/mL.

What about the “Mean Mediator Level ± SEM, IL-12p70” value ([2]; VTX-378 1.6 uM) of the same compound?
Its value is 38 ± 10 pg/mL.

And the “Mean Mediator Level ± SEM, IL-12p40” value ([2]; VTX-378 1.6 uM, *p < 0.05 to Control)?
The value was 140 ± 32* pg/mL.

What about the “production of Th-1 cytokines and chemokines including IL-12, IFN, MCP-1 and MIP-1β” value ([2]; incubation with isolated human PBMCs) of the same compound?
Its value is “stimulated PBMCs to produce”.

And the “activity on TLR2” value (TLR2)?
The value was “no detectable activity”.

What about the “activity on TLR9” value (TLR9) of the same compound?
Its value is “no detectable activity”.
